Data as given in patent publication US20080312253A1, “Pharmaceutical compositions containing pyrazole derivatives for treating as serotonin antagonist” (KOREA INSTITUTE OF SCIENCE AND TECHNOLOGY, priority 2007, published 2008).

Experiments:
[1] = target: T1, serotonin 5-HT3A receptor (Homo sapiens, UniProt P46098); test: Assay for 5-HT3A receptor: two-electrode voltage clamp of 5-HT-induced inward current in Xenopus oocytes expressing 5-HT3A receptor; type: cell-based; settings: inhibition of inward current (I5-HT) induced by 5-HT (1 μM), Xenopus laevis oocytes, from concentration-response curves; for IC50: read-out: IC50 (50% inhibitory concentration); for inhibition: read-out: maximum inhibition value (Vmax)
T1 sequence (P46098 24-478): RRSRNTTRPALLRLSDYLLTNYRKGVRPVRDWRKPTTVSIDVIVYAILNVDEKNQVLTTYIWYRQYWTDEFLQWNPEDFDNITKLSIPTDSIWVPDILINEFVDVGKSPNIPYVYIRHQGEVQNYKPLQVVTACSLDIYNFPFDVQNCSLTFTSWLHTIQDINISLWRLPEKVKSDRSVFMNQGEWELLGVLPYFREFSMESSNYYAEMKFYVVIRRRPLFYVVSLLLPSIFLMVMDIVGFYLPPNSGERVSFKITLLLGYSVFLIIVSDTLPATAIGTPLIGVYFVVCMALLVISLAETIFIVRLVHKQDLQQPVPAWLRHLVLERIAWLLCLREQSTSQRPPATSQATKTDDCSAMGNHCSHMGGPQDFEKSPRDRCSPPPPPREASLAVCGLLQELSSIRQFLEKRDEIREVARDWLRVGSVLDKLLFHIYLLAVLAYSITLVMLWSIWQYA

Hill coefficient (nH) [1]	maximum inhibition value (Vmax) [1]	IC50 [1]	inhibition [1]	melting point	Compound
2.2 ± 0.4	73.1 ± 3.1	8.2 ± 0.8 µM			1-Phenyl-3-{2-[4-(4-chlorobenzhydryl)piperazin-1-yl]ethyl}aminomethyl-5-toluylpyrazole [Compound 13]
1.5 ± 0.2		9.4 ± 0.7 µM	95.9 ± 2.8%		Clc1cccc(N2CCN(CCNCc3cc(-c4ccco4)n(-c4ccccc4)n3)CC2)c1 [Compound 1, 1-Phenyl-3-{2-[4-(3-chlorophenyl)piperazin-1-yl]ethyl}aminomethyl-5-(2-furyl)pyrazole]
1.5 ± 0.3		1.3 ± 0.2 µM	94.8 ± 4.8%		CCCc1cc(CNCCN2CCN(c3ccc(Cl)cc3)CC2)nn1-c1ccccc1 [Compound 5, 1-Phenyl-3-{2-[4-(4-chlorophenyl)piperazin-1-yl]ethyl}aminomethyl-5-propylpyrazole]
2.0 ± 0.2		4.3 ± 0.3 µM	97.3 ± 2%		Clc1ccc(N2CCN(CCNCc3cc(-c4ccco4)n(-c4ccccc4)n3)CC2)cc1 [Compound 8, 1-Phenyl-3-{2-[4-(4-chlorophenyl)piperazin-1-yl]ethyl}aminomethyl-5-(2-furyl)pyrazole]
1.9 ± 0.1		6.4 ± 0.3 µM	95.9 ± 1.6%		Clc1ccc(N2CCN(CCNCc3cc(-c4ccc(N5CCCCC5)cc4)n(-c4ccccc4)n3)CC2)cc1 [Compound 10, 1-Phenyl-3-{2-[4-(4-chlorophenyl)piperazin-1-yl]ethyl}aminomethyl-5-4-(N-piperidyl)phenylpyrazole]
1.1 ± 0.1		3.1 ± 0.3 µM	101 ± 2.6%		Clc1ccc(N2CCN(CCNCc3cc(-c4ccccc4)n(-c4ccccc4)n3)CC2)cc1 [Compound 11, 1,5-Diphenyl-3-{2-[4-(4-chlorophenyl)piperazin-1-yl]ethyl}aminomethyl-5-pyrazole]
		2.2 ± 0.2 µM	95.5 ± 3.5%		Cc1ccc(-c2cc(CNCCN3CCN(c4ccc(Cl)cc4)CC3)nn2-c2ccccc2)cc1 [Compound 12, 1,5-Diphenyl-3-{2-[4-(4-chlorophenyl)piperazin-1-yl]ethyl}aminomethyl-5-toluylpyrazole]

More lines, now with the values behind:

Compound	Hill coefficient (nH) [1]	maximum inhibition value (Vmax) [1]	IC50 [1]	inhibition [1]	melting point
1-Phenyl-3-{2-[4-(4-chlorophenyl)piperazin-1-yl]ethyl}aminomethyl-5-methylpyrazole [Compound 3]	1.4 ± 0.1	98.5 ± 1.2	2.5 ± 0.3 µM		
1-t-Butyl-3-{2-[4-(4-chlorophenyl)piperazin-1-yl]ethyl}aminomethyl-5-propylpyrazole [Compound 4]	1.4 ± 0.3	97.3 ± 5.6	1.3 ± 0.3 µM		
Cc1cc(CNCCN2CCN(c3cccc(Cl)c3)CC2)[nH]n1 [Compound 2, 3-{2-[4-(3-Chlorophenyl)piperazin-1-yl]ethyl}aminomethyl-5-methylpyrazole]	1.0 ± 0.1		9.6 ± 1.1 µM	90.6 ± 2.7%	
CC(C)Cc1cc(CNCCN2CCN(c3ccc(Cl)cc3)CC2)nn1-c1ccccc1 [Compound 6, 1-Phenyl-3-{2-[4-(4-chlorophenyl)piperazin-1-yl]ethyl}aminomethyl-5-isobutylpyrazole]	1.2 ± 0.1		2.8 ± 0.2 µM	103 ± 2.5%	
CC(C)Cc1cc(CNCCN2CCN(c3ccc(Cl)cc3)CC2)nn1C(C)(C)C [Compound 7, 1-t-Butyl-3-{2-[4-(4-chlorophenyl)piperazin-1-yl]ethyl}aminomethyl-5-isobutylpyrazole]	1.4 ± 0.4		3.3 ± 0.9 µM	104 ± 3.5%	133 to 134 °C
Cc1ccc(-c2cc(CNCCN3CCN(c4ccc(Cl)cc4)CC3)nn2C(C)(C)C)cc1 [Compound 9]			2.4 ± 0.4 µM	103 ± 6.5%	
CN1[C@@H]2CC[C@H]1C[C@@H](OC(=O)c1cc(Cl)cc(Cl)c1)C2 [MDL72222, reference compound]	1.25 ± 0.27			99.6 ± 7.7%	
